Data on two compounds can be found in paper PMC12117050 (Scientific Reports, 2025).

In one data set the test system is CYP3A4. Particulars: cited from earlier work.
Data set [1] has as its system CYP3A. Particulars: cited from earlier work.
The test system of data set [2] is CYP3A. Particulars: by inhibiting CYP3A activity; cited from earlier work.
Data set [3] in a line: Midazolam pharmacokinetics in rats after 7-day MFE or water pre-treatment. To be noted: rat.
Where [4] appears, read: Sprague Dawley, plasma, po, 15 mg/kg.

With `O=C(O[C@@H]1Cc2c(O)cc(O)cc2O[C@@H]1c1cc(O)c(O)c(O)c1)c1cc(O)c(O)c(O)c1` [EGCG, epigallocatechin gallate], the “Inhibition of CYP3A4 activity” value in the data set on CYP3A4 is listed as “irreversibly inhibits”. For the same compound, the “Inhibition of CYP3A activity in human liver microsomes” value in the data set with CYP3A [1] is given as “moderately inhibits”. For the same compound, the “Effect on pharmacokinetics of nicardipine in rats” value with CYP3A [2] is “alters the pharmacokinetics of nicardipine”.

As usually defined, the Tmax is the time from dosing to the highest level. The Cmax is the highest concentration seen after dosing. Take `Cc1ncc2n1-c1ccc(Cl)cc1C(c1ccccc1F)=NC2` [Midazolam]: the Tmax is 15 min in data set [3] (Sprague Dawley, plasma, po) and 30 min in data set [3] (setting [4]). For the same compound, the Cmax stood at 708 ± 91 ng/mL in data set [3] (setting [4]) and 919 ± 70 ng/mL in data set [3] (midazolam 15 mg/kg oral, control (water pre-treatment 7 days)). In data set [3] (midazolam 15 mg/kg oral, no significant difference), the “AUC0−∞ higher in MFE pre-treatment group compared to control group” value turned out to be 12%.
